Source: PubChem BioAssay AID256 (DTP/NCI, 2004)
Values joined by “and” are separate entries in the source; they are usually repeats but may differ in a detail not shown here. Equal values may be shown once. Toxic doses and inconclusive results are not listed. Rule for the calls: active = survival T/C of 150% or more; inactive = T/C below 125% in these data.

Test system: CD2F1 mice, L1210 leukemia ip, survival T/C
Experiment: NCI In Vivo Anticancer Drug Screen. Data for tumor model L1210 Leukemia (intraperitoneal) in CD2F1 (CDF1) mice
Settings: higher = longer survival
In short: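 Tumor-bearing mice (transplanted tumor) were split into treated and vehicle control groups, and the measured endpoint of each treated group was divided by that of its vehicle controls.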

[1] = endpoint: mean survival time, dose: 100.0 mg/kg/injection, schedule: Q01DX001 (ip), vehicle: Klucel (hydroxypropylcellulose) (HPC)
[2] = endpoint: mean survival time, dose: 200.0 mg/kg/injection, schedule: Q01DX001 (ip), vehicle: Klucel (hydroxypropylcellulose) (HPC)
[3] = endpoint: mean survival time, dose: 400.0 mg/kg/injection, schedule: Q01DX001 (ip), vehicle: Klucel (hydroxypropylcellulose) (HPC)
[4] = endpoint: mean survival time, dose: 100.0 mg/kg/injection, schedule: Q04DX003 (ip), vehicle: saline with Tween-80
[5] = endpoint: mean survival time, dose: 200.0 mg/kg/injection, schedule: Q04DX003 (ip), vehicle: saline with Tween-80
[6] = endpoint: mean survival time, dose: 6.25 mg/kg/injection, schedule: Q04DX003 (ip), vehicle: saline with Tween-80
[7] = endpoint: mean survival time, dose: 12.5 mg/kg/injection, schedule: Q04DX003 (ip), vehicle: saline with Tween-80
[8] = endpoint: mean survival time, dose: 25.0 mg/kg/injection, schedule: Q04DX003 (ip), vehicle: saline with Tween-80
[9] = endpoint: mean survival time, dose: 3.13 mg/kg/injection, schedule: Q01DX009 (ip), vehicle: saline with Tween-80
[10] = endpoint: mean survival time, dose: 6.25 mg/kg/injection, schedule: Q01DX009 (ip), vehicle: saline with Tween-80
[11] = endpoint: mean survival time, dose: 12.5 mg/kg/injection, schedule: Q01DX009 (ip), vehicle: saline with Tween-80
[12] = endpoint: mean survival time, dose: 25.0 mg/kg/injection, schedule: Q01DX009 (ip), vehicle: saline with Tween-80
[13] = endpoint: mean survival time, dose: 50.0 mg/kg/injection, schedule: Q01DX009 (ip), vehicle: saline with Tween-80
[14] = endpoint: mean survival time, dose: 50.0 mg/kg/injection, schedule: Q01DX009 (ip), vehicle: Klucel (hydroxypropylcellulose) (HPC)
[15] = endpoint: mean survival time, dose: 100.0 mg/kg/injection, schedule: Q01DX009 (ip), vehicle: Klucel (hydroxypropylcellulose) (HPC)
[16] = endpoint: mean survival time, dose: 200.0 mg/kg/injection, schedule: Q01DX009 (ip), vehicle: Klucel (hydroxypropylcellulose) (HPC)
[17] = endpoint: mean survival time, dose: 100.0 mg/kg/injection, schedule: Q04DX002 (ip), vehicle: saline with Tween-80
[18] = endpoint: mean survival time, dose: 200.0 mg/kg/injection, schedule: Q04DX002 (ip), vehicle: saline with Tween-80
[19] = endpoint: mean survival time, dose: 100.0 mg/kg/injection, schedule: Q01DX001 (ip), vehicle: saline with Tween-80
[20] = endpoint: mean survival time, dose: 100.0 mg/kg/injection, schedule: Q01DX009 (ip), vehicle: saline with Tween-80
[21] = endpoint: mean survival time, dose: 200.0 mg/kg/injection, schedule: Q01DX001 (ip), vehicle: saline with Tween-80
[22] = endpoint: mean survival time, dose: 200.0 mg/kg/injection, schedule: Q01DX009 (ip), vehicle: saline with Tween-80
[23] = endpoint: mean survival time, dose: 400.0 mg/kg/injection, schedule: Q01DX001 (ip), vehicle: saline with Tween-80
[24] = endpoint: mean survival time, dose: 50.0 mg/kg/injection, schedule: Q04DX003 (ip), vehicle: saline with Tween-80

Measured: T/C

CNC(=O)n1ncnc1N
inactive: endpoint: mean survival time, dose: 12.5 mg/kg/injection, schedule: Q01DX001 (ip), vehicle: carboxymethylcellulose (CMC) 95 % of control | endpoint: mean survival time, dose: 25.0 mg/kg/injection, schedule: Q01DX001 (ip), vehicle: carboxymethylcellulose (CMC) 100 % of control | endpoint: mean survival time, dose: 50.0 mg/kg/injection, schedule: Q01DX001 (ip), vehicle: carboxymethylcellulose (CMC) 95 % of control | endpoint: mean survival time, dose: 100.0 mg/kg/injection, schedule: Q01DX001 (ip), vehicle: carboxymethylcellulose (CMC) 91 % of control | endpoint: mean survival time, dose: 200.0 mg/kg/injection, schedule: Q01DX001 (ip), vehicle: carboxymethylcellulose (CMC) 93 % of control

CCCCCCCCCCCCCCCCCCN=C(N)N
inactive: [1] 103 % of control | [2] 96 % of control | [3] 88 % of control

O=C(CCl)OCc1ccc([N+](=O)[O-])o1
inactive: [4] 98 % of control | [5] 101 % of control

Clc1c(Br)nc(Br)nc1C(Cl)(Cl)Cl
inactive: [6] 98 % of control | [7] 98 % of control | [8] 98 % of control

CCc1cc[c]([Sb](=[O])([OH])[OH])cc1
inactive: endpoint: mean survival time, dose: 50.0 mg/kg/injection, schedule: Q04DX003 (ip), vehicle: saline 89 % of control | endpoint: mean survival time, dose: 100.0 mg/kg/injection, schedule: Q04DX003 (ip), vehicle: saline 101 % of control | endpoint: mean survival time, dose: 200.0 mg/kg/injection, schedule: Q04DX003 (ip), vehicle: saline 101 % of control

COc1cc(O)c2c(O)c3c(c4c2c1[C@]1(C4)C(C)=CCCC1(C)C)[C@H](O)[C@@]1(O)CC(=O)C(C(N)=O)=C(O)[C@@]1(O)C3=O
inactive: endpoint: mean survival time, dose: 1.56 mg/kg/injection, schedule: Q01DX009 (ip), vehicle: saline with Tween-80 96 % of control and 101 % of control | [9] 98 % of control | [10] 104 % of control | [11] 114 % of control | endpoint: mean survival time, dose: 16.5 mg/kg/injection, schedule: Q04DX003 (ip), vehicle: saline with Tween-80 98 % of control | [12] 119 % of control | [8] 102 % of control | endpoint: mean survival time, dose: 37.5 mg/kg/injection, schedule: Q04DX003 (ip), vehicle: saline with Tween-80 111 % of control | [13] 90 % of control

Cc1c([C@H](C)[C@@H]2NC[C@@H](C)C[C@H]2O)ccc2c1C[C@H]1[C@H]2CC=C2C[C@@H](O)CC[C@@]21C
inactive: endpoint: mean survival time, dose: 2.5 mg/kg/injection, schedule: Q01DX009 (ip), vehicle: Klucel (hydroxypropylcellulose) (HPC) 96 % of control | endpoint: mean survival time, dose: 5.0 mg/kg/injection, schedule: Q01DX009 (ip), vehicle: Klucel (hydroxypropylcellulose) (HPC) 102 % of control

O=Cc1cccc(OCc2ccc([N+](=O)[O-])cc2)c1
inactive: [14] 105 % of control | [15] 108 % of control | [16] 97 % of control

CCCCS(CCCC)=NS(=O)(=O)c1ccc(C)cc1
inactive: [14] 90 % of control | [15] 94 % of control | [16] 90 % of control

CCN(CC)CCCC(C)NC(c1ccc2c(c1)Sc1ccccc1O2)[P+](=O)O (stereo not drawn)
inactive: endpoint: mean survival time, dose: 50.0 mg/kg/injection, schedule: Q04DX002 (ip), vehicle: saline with Tween-80 97 % of control | endpoint: mean survival time, dose: 100.0 mg/kg/injection, schedule: Q01DX001 (ip), vehicle: saline sonified 95 % of control | [17] 90 % of control | endpoint: mean survival time, dose: 200.0 mg/kg/injection, schedule: Q01DX001 (ip), vehicle: saline sonified 91 % of control | [18] 97 % of control

CCOC(=O)/C(=C/[N-]c1ccccc1[N-]/C=C(\C(C)=O)C(=O)OCC)C(C)=O.[Pt+2]
inactive: endpoint: median survival time, dose: 10.0 mg/kg/injection, schedule: Q04DX003 (ip), vehicle: saline with Tween-80 98 % of control | endpoint: median survival time, dose: 20.0 mg/kg/injection, schedule: Q04DX003 (ip), vehicle: saline with Tween-80 96 % of control | endpoint: median survival time, dose: 40.0 mg/kg/injection, schedule: Q04DX003 (ip), vehicle: saline with Tween-80 89 % of control | endpoint: median survival time, dose: 50.0 mg/kg/injection, schedule: Q04DX003 (ip), vehicle: saline with Tween-80 96 % of control | endpoint: median survival time, dose: 80.0 mg/kg/injection, schedule: Q04DX003 (ip), vehicle: saline with Tween-80 101 % of control | endpoint: median survival time, dose: 100.0 mg/kg/injection, schedule: Q04DX003 (ip), vehicle: saline with Tween-80 97 % of control | endpoint: median survival time, dose: 200.0 mg/kg/injection, schedule: Q04DX003 (ip), vehicle: saline with Tween-80 101 % of control

CCOC(=O)c1nc(SC)n(C)c1C(=O)OCC
inactive: [17] 94 % of control | [18] 105 % of control

C=CCOc1ccc(Cl)cc1
inactive: [1] 108 % of control | [2] 92 % of control | [3] 100 % of control

CN1NC(c2ccc(Cl)cc2)C2CN(C3CCCCC3)C(=O)C21O (stereo not drawn)
inactive: [19] 100 % of control | [20] 96 % of control | [21] 96 % of control | [22] 90 % of control | [23] 94 % of control | endpoint: mean survival time, dose: 400.0 mg/kg/injection, schedule: Q01DX009 (ip), vehicle: saline with Tween-80 88 % of control

O=Cc1ccc(N=Nc2c(S(=O)(=O)O)cc3cc(S(=O)(=O)O)cc(O)c3c2O)cc1
inactive: [20] 100 % of control | [4] 96 % of control | [22] 88 % of control | endpoint: mean survival time, dose: 400.0 mg/kg/injection, schedule: Q04DX003 (ip), vehicle: saline with Tween-80 88 % of control

CC(C)(Nc1nc2c(ncn2C2OC(CO)C(O)C2O)c(=O)[nH]1)P(=O)(O)O (stereo not drawn)
inactive: endpoint: median survival time, dose: 12.5 mg/kg/injection, schedule: Q01DX005 (ip), vehicle: water 105 % of control | endpoint: median survival time, dose: 25.0 mg/kg/injection, schedule: Q01DX005 (ip), vehicle: water 103 % of control | endpoint: median survival time, dose: 50.0 mg/kg/injection, schedule: Q01DX005 (ip), vehicle: water 108 % of control | endpoint: median survival time, dose: 100.0 mg/kg/injection, schedule: Q01DX005 (ip), vehicle: water 105 % of control

CC1CCC(n2cnc3c(Cl)ncnc32)O1 (stereo not drawn)
inactive: endpoint: median survival time, dose: 12.5 mg/kg/injection, schedule: Q01DX009 (ip), vehicle: Klucel (hydroxypropylcellulose) (HPC) 97 % of control and 101 % of control | endpoint: median survival time, dose: 25.0 mg/kg/injection, schedule: Q01DX009 (ip), vehicle: Klucel (hydroxypropylcellulose) (HPC) 95 % of control and 100 % of control and 105 % of control | endpoint: median survival time, dose: 50.0 mg/kg/injection, schedule: Q01DX009 (ip), vehicle: Klucel (hydroxypropylcellulose) (HPC) 113 % of control and 93 % of control and 108 % of control | endpoint: median survival time, dose: 100.0 mg/kg/injection, schedule: Q01DX009 (ip), vehicle: Klucel (hydroxypropylcellulose) (HPC) 102 % of control and 108 % of control and 111 % of control | endpoint: median survival time, dose: 200.0 mg/kg/injection, schedule: Q01DX009 (ip), vehicle: Klucel (hydroxypropylcellulose) (HPC) 113 % of control (2×) and 114 % of control

CC(C)(CCCO)c1cccc(Cl)c1
inactive: [13] 104 % of control | [20] 101 % of control | [22] 104 % of control

CCC1(C)CCC2(C)C(CCC3C2CCCC3(C)CO)C1 (stereo not drawn)
inactive: [19] 94 % of control | [21] 88 % of control | [23] 96 % of control

O=S(=O)(OCC(COS(=O)(=O)c1ccccc1)(COS(=O)(=O)c1ccccc1)COS(=O)(=O)c1ccccc1)c1ccccc1
inactive: [13] 96 % of control | [20] 97 % of control | [4] 86 % of control | [22] 95 % of control | [5] 89 % of control

COc1ccc(NC(=O)Nc2cc(OC)c(Cl)cc2OC)cc1
inactive: [17] 96 % of control | [18] 89 % of control | endpoint: mean survival time, dose: 400.0 mg/kg/injection, schedule: Q04DX002 (ip), vehicle: saline with Tween-80 89 % of control

[Cl][Pt+2][Cl].[NH-]CCc1ccccc1.[NH-]CCc1ccccc1
inactive: [7] 103 % of control | [8] 106 % of control | [24] 106 % of control | [4] 103 % of control | [5] 117 % of control

CCOC(=O)N/N=C/c1cc(Cl)ccc1O
inactive: [24] 98 % of control | [4] 93 % of control | [5] 91 % of control

COc1cc(CNC(=O)CCCC2CCC2)ccc1O
inactive: [9] 96 % of control | [10] 94 % of control and 97 % of control | [6] 96 % of control | [11] 86 % of control and 97 % of control | [7] 101 % of control | [12] 100 % of control | [8] 95 % of control
